Test results from US8173635B2, “Kinase inhibitors” (Vertex Pharmaceuticals Incorporated, priority 2007, dated 2012).

Experiments:
Assay type in all cases: biochemical
PKC theta kinase = PKC theta kinase (Homo sapiens, UniProt Q04759); test: PKC theta kinase inhibition, coupled-enzyme NADH absorbance assay (Ki); settings: 240 μM ATP, 18 nM PKC theta, 30° C.; read-out: Ki PKC theta
Description: (§1) An assay buffer solution was prepared which consisted of 100 mM HEPES (pH 7.5), 10 mM MgCl2, 25 mM NaCl, 0.1 mM EDTA and 0.01% Brij. […] To 60 μL of this enzyme buffer, in a 384 well plate, was added 2 μL of VRT stock solution in DMSO. The mixture was allowed to equilibrate for 10 mins at 30° C. […] Ki values were calculated from initial rate data by non-linear regression using the Prism software package (Prism 4.0a, Graphpad Software, San Diego, Calif.).

PKC alpha kinase = PKC alpha kinase (Homo sapiens, UniProt P17252); test: PKC alpha kinase inhibition, coupled-enzyme NADH absorbance assay (Ki); settings: 130 μM ATP, 4.5 nM PKC alpha, 30° C.; read-out: Ki PKC alpha
Description: An assay buffer solution was prepared which consisted of 100 mM HEPES (pH 7.5), 10 mM MgCl2, 25 mM NaCl, 0.1 mM EDTA, 100 μM CaCl2 and 0.01% Brij. […] To 16 μL of this enzyme buffer, in a 384 well plate, was added 1 μL of VRT stock solution in DMSO. The mixture was allowed to equilibrate for 10 mins at 30° C. The enzyme reaction was initiated by the addition of 16 μL stock ATP solution prepared in assay buffer to a final assay concentration of 130 μM. Initial rate data was determined from the rate of change of absorbance at 340 nm (corresponding to stoichiometric consumption of NADH) using a Molecular Devices Spectramax plate reader (Sunnyvale, Calif.) over 15 mins at 30° C. […] Ki values were calculated from initial rate data by non-linear regression using the Prism software package (Prism 4.0a, Graphpad Software, San Diego, Calif.).

PKC delta kinase = PKC delta kinase (Homo sapiens, UniProt Q05655); test: PKC delta kinase inhibition, coupled-enzyme NADH absorbance assay (Ki); settings: 150 μM ATP, 46 nM PKC delta, 30° C.; read-out: Ki PKC delta
Description: as §1, with “To 16” for “To 60”, “added 1” for “added 2”

Sequence of PKC theta kinase (Q04759 whole entry): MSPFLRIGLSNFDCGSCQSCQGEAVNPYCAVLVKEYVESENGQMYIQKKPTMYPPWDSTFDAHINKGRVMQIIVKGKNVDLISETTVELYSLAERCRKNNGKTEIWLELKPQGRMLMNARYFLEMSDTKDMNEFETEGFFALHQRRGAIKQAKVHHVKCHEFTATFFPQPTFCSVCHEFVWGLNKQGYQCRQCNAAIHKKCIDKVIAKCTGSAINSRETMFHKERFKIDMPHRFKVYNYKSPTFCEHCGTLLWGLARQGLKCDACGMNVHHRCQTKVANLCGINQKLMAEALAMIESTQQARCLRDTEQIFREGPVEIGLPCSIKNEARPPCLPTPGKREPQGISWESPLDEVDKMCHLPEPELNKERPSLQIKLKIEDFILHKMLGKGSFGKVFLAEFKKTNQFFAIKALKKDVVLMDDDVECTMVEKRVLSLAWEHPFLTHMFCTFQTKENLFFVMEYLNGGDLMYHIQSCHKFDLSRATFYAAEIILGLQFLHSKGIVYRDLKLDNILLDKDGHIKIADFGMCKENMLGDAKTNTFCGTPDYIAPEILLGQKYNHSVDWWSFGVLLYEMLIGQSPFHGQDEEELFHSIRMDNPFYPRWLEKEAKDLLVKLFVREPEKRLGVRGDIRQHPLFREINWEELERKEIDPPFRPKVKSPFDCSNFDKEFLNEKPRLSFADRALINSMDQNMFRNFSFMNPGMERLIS
Sequence of PKC delta kinase (Q05655 whole entry): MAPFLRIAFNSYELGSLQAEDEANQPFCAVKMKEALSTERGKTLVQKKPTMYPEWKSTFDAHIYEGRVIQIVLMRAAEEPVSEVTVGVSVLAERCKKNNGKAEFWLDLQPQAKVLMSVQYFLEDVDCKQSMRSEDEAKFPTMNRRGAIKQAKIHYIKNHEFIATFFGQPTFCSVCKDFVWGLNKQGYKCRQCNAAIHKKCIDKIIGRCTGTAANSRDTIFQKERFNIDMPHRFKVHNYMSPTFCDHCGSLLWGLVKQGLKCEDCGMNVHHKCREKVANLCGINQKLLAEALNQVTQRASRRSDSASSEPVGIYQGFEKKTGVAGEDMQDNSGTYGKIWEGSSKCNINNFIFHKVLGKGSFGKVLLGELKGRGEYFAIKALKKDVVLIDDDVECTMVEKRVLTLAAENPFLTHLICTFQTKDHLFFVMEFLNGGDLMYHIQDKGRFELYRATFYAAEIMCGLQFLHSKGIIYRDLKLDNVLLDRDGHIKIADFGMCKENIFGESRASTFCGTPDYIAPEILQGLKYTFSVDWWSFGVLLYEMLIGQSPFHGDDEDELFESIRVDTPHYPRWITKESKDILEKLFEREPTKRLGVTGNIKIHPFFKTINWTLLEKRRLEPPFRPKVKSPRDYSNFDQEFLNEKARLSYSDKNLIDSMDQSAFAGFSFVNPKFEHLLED

Ki (PKC theta kinase)	Ki (PKC alpha kinase)	Ki (PKC delta kinase)	SMILES
< 50 nM	< 500 nM	< 500 nM	CC(C)(C#N)c1cccc(-c2ccnc3[nH]ncc23)n1 [Compound 1, 2-(6-(1H-pyrazolo[3,4-b]pyridin-4-yl)pyridin-2-yl)-2-methylpropanenitrile]
< 50 nM	–	< 500 nM	N#CC1(c2cccc(-c3ccnc4[nH]ncc34)n2)CCNCC1 [Compound 2]
< 50 nM	–	< 500 nM	N#CC1(c2cccc(-c3ccnc4[nH]ncc34)n2)CCNC1 (centres unmarked) [Compound 3]
< 50 nM	–	< 2800 nM	CC(C)(C#N)c1cccc(-c2ccnc3[nH]ncc23)c1 [Compound 4, 2-(3-(1H-pyrazolo[3,4-b]pyridin-4-yl)phenyl)-2-methylpropanenitrile]
< 50 nM	–	< 2800 nM	Cc1cc(-c2ccnc3[nH]ncc23)cc(C(C)(C)C#N)c1 [Compound 5]
< 500 nM	–	< 2800 nM	N#CC1(c2cccc(-c3ccnc4[nH]ncc34)c2)CCNCC1 [Compound 6]
> 2800 nM	–	> 2800 nM	CC(=O)N1CCN(c2cc(-c3ccnc4[nH]ncc34)cc(C(C)(C)C#N)c2)CC1 [Compound 7]
< 500 nM	–	> 2800 nM	CC(C)(C#N)c1cc(-c2ccnc3[nH]ncc23)cc(N2CCNCC2)c1 [Compound 8]
< 2800 nM	–	–	CC(C)(C#N)c1cc(-c2ccnc3[nH]ncc23)cc(N2CCCCC2)c1 [Compound 9]
< 500 nM	–	> 2800 nM	CC(C)(C#N)c1cc(Nc2ccccc2)cc(-c2ccnc3[nH]ncc23)c1 [Compound 10]
< 500 nM	> 2800 nM	> 2800 nM	CC(C)(C#N)c1cc(-c2ccnc3[nH]ncc23)cc(N2CCC2)c1 [Compound 11]
< 2800 nM	–	–	CC(C)(C#N)c1cc(NCc2ccccc2)cc(-c2ccnc3[nH]ncc23)c1 [Compound 12]
< 500 nM	< 2800 nM	< 2800 nM	CC(C)(C#N)c1cc(N)cc(-c2ccnc3[nH]ncc23)c1 [Compound 13]
< 500 nM	–	–	CC(C)(C#N)c1cc(NC2CNC2)cc(-c2ccnc3[nH]ncc23)c1 [Compound 14]
< 2800 nM	–	–	CC(C)(C#N)c1cc(-c2ccnc3[nH]ncc23)cc(C(O)c2ccccc2)c1 (centres unmarked) [Compound 15]
< 2800 nM	–	–	CC(C)(C#N)c1cc(C(=O)c2ccccc2)cc(-c2ccnc3[nH]ncc23)c1 [Compound 16]
< 500 nM	> 2800 nM	> 2800 nM	CC(C)(C#N)c1cc(NCCN)cc(-c2ccnc3[nH]ncc23)c1 [Compound 17]
< 50 nM	< 2800 nM	< 2800 nM	CC(C)(C#N)c1cc(Br)cc(-c2ccnc3[nH]ncc23)c1 [Compound 18]
< 500 nM	> 2800 nM	> 2800 nM	CC(C)C(O)c1cc(-c2ccnc3[nH]ncc23)cc(C(C)(C)C#N)c1 (centres unmarked) [Compound 19]
< 500 nM	–	–	CC(C)(C#N)c1cc(NC2CCNCC2)cc(-c2ccnc3[nH]ncc23)c1 [Compound 20]
< 500 nM	> 2800 nM	> 2800 nM	CC(C)(C#N)c1cc(NCCCN)cc(-c2ccnc3[nH]ncc23)c1 [Compound 21]
< 500 nM	> 2800 nM	> 2800 nM	CC(O)c1cc(-c2ccnc3[nH]ncc23)cc(C(C)(C)C#N)c1 (centres unmarked) [Compound 22]
< 500 nM	–	–	N#CCc1cccc(-c2ccnc3[nH]ncc23)c1 [Compound 23]
< 500 nM	–	–	CC(=O)c1cc(-c2ccnc3[nH]ncc23)cc(C(C)(C)C#N)c1 [Compound 24]
< 500 nM	–	–	CNCc1cc(Br)cc(-c2ccnc3[nH]ncc23)c1 [Compound 25]
< 2800 nM	–	–	O=C1CCc2cc(-c3ccnc4[nH]ncc34)ccc21 [Compound 26]
< 2800 nM	–	–	OC1CCc2cc(-c3ccnc4[nH]ncc34)ccc21 (centres unmarked) [Compound 27]

Ki (PKC theta kinase)	Ki (PKC alpha kinase)	Ki (PKC delta kinase)	SMILES
< 500 nM	–	–	O=C1CCc2ccc(-c3ccnc4[nH]ncc34)cc21 [Compound 28]
> 2800 nM	–	–	OC1CCc2ccc(-c3ccnc4[nH]ncc34)cc21 (centres unmarked) [Compound 29]
< 500 nM	< 2800 nM	< 2800 nM	CCC(C)(C#N)c1cc(Br)cc(-c2ccnc3[nH]ncc23)c1 (centres unmarked) [Compound 30]
< 50 nM	< 2800 nM	< 500 nM	CC(C)(CN)c1cccc(-c2ccnc3[nH]ncc23)c1 [Compound 31, 2-(3-(1H-pyrazolo[3,4-b]pyridin-4-yl)phenyl)-2-methylpropan-1-amine]
< 50 nM	< 500 nM	< 500 nM	Cc1cc(-c2ccnc3[nH]ncc23)cc(C(C)(C)CN)c1 [Compound 32]
> 2800 nM	–	–	CC(C)(CN)c1cc(-c2ccnc3[nH]ncc23)cc(N2CCCCC2)c1 [Compound 33]
< 50 nM	< 2800 nM	< 500 nM	CC(C)(CN)c1cc(Br)cc(-c2ccnc3[nH]ncc23)c1 [Compound 34]
< 2800 nM	–	–	CC(C)(CN)c1cc(-c2ccccc2)cc(-c2ccnc3[nH]ncc23)c1 [Compound 35]
< 500 nM	< 2800 nM	< 2800 nM	C=Cc1cc(-c2ccnc3[nH]ncc23)cc(C(C)(C)CN)c1 [Compound 36]
< 2800 nM	–	–	CC(C)(CN)c1cc(C2=CCCCC2)cc(-c2ccnc3[nH]ncc23)c1 [Compound 37]
< 500 nM	–	–	CC(C)(CN)c1cc(-c2ccc[nH]2)cc(-c2ccnc3[nH]ncc23)c1 [Compound 38]
< 500 nM	> 2800 nM	> 2800 nM	CC(O)c1cc(-c2ccnc3[nH]ncc23)cc(C(C)(C)CN)c1 (centres unmarked) [Compound 39]
< 500 nM	< 2800 nM	< 500 nM	C#Cc1cc(-c2ccnc3[nH]ncc23)cc(C(C)(C)CN)c1 [Compound 40]
< 2800 nM	–	–	CC(C)C(O)c1cc(-c2ccnc3[nH]ncc23)cc(C(C)(C)CN)c1 (centres unmarked) [Compound 43]
< 2800 nM	–	–	CC(C)(C#N)c1cc(-c2ccccc2)cc(-c2ccnc3[nH]ncc23)c1 [Compound 53, 2-(5-(1H-pyrazolo[3,4-b]pyridin-4-yl)biphenyl-3-yl)-2-methylpropanenitrile]
> 2800 nM	–	–	CC(C)(C#N)c1cc(C2=CCCCC2)cc(-c2ccnc3[nH]ncc23)c1 [Compound 56]
< 2800 nM	–	–	CC(C)(C#N)c1cc(-c2ccnc3[nH]ncc23)cc(C2CCCCC2)c1 [Compound 58]
< 2800 nM	–	–	C/C=C/c1cc(CNC)cc(-c2ccnc3[nH]ncc23)c1 [Compound 60]
< 500 nM	–	–	C#Cc1cc(-c2ccnc3[nH]ncc23)cc(C(C)(C)C#N)c1 [Compound 61]
< 500 nM	–	–	C=CCc1cc(CNC)cc(-c2ccnc3[nH]ncc23)c1 [Compound 63]
< 500 nM	–	–	C=C(C)c1cc(-c2ccnc3[nH]ncc23)cc(C(C)(C)C#N)c1 [Compound 65]
< 500 nM	< 2800 nM	–	CCC(C#N)(CC)c1cccc(-c2ccnc3[nH]ncc23)c1 [Compound 68]
< 2800 nM	–	–	CC(C)(C)OC(=O)NCCNc1cc(-c2ccnc3[nH]ncc23)cc(C(C)(C)C#N)c1 [Compound 81]
< 2800 nM	–	–	CC(C)(C#N)c1cc(NCCCNC(=O)OCc2ccccc2)cc(-c2ccnc3[nH]ncc23)c1 [Compound 82]
< 2800 nM	–	–	CC(C)(C#N)c1cc(-c2ccnc3n[nH]cc23)ccc1Br [Compound 83]
< 50 nM	< 2800 nM	–	Cc1cc(-c2ccnc3[nH]ncc23)cc(C2(CN)CCCC2)c1 [Compound 189]
–	> 1200 nM	> 1200 nM	CCCc1cc(-c2ccnc3[nH]nc(C(F)(F)F)c23)cc(C2(C#N)CC2)c1 [Compound 313]
